Assays:
morningglory = test: Test B pre/postemergence morningglory; assay type: in vivo, Ipomoea hederacea
How it was run: (§1)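 Herbicidal effect was estimated by eye on a ten-point control scale after plants spent twelve to sixteen days in a greenhouse following soil or foliar treatment. Foliar sprays targeted plants at one to four leaves; all doses were formulated in a non-phytotoxic solvent with surfactant.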

corn = test: Test B pre/postemergence corn; assay type: in vivo, Zea mays
How it was run: as §1

giant foxtail = test: Test B pre/postemergence giant foxtail; assay type: in vivo, Setaria faberii
How it was run: as §1

soybean = test: Test B pre/postemergence soybean; assay type: in vivo, Glycine max
How it was run: as §1

sugar beet = test: Test B pre/postemergence sugar beet; assay type: in vivo, Beta vulgaris
How it was run: as §1

velvetleaf = test: Test B pre/postemergence velvetleaf; assay type: in vivo, Abutilon theophrasti
How it was run: as §1

blackgrass = test: Test B pre/postemergence blackgrass; assay type: in vivo, Alopecurus myosuroides
How it was run: as §1

crabgrass = test: Test B pre/postemergence crabgrass; assay type: in vivo, Digitaria sanguinalis
How it was run: as §1

pigweed = test: Test B pre/postemergence pigweed; assay type: in vivo, Amaranthus retroflexus
How it was run: as §1

rape = test: Test B pre/postemergence rape; assay type: in vivo, Brassica napus
How it was run: as §1

bedstraw = test: Test B pre/postemergence bedstraw; assay type: in vivo, Galium aparine
How it was run: as §1

wheat = test: Test B pre/postemergence wheat; assay type: in vivo, Triticum aestivum
How it was run: as §1

surinam grass = test: Test B pre/postemergence surinam grass; assay type: in vivo, Brachiaria decumbens
How it was run: as §1

purple nutsedge = test: Test B pre/postemergence purple nutsedge; assay type: in vivo, Cyperus rotundus
How it was run: as §1

wild oat = test: Test B pre/postemergence wild oat; assay type: in vivo, Avena fatua
How it was run: as §1

cocklebur = test: Test B pre/postemergence cocklebur; assay type: in vivo, Xanthium strumarium
How it was run: as §1

[1] = Postemergence, Rate 62 g/ha, scale 0 to 10, 0 is no effect, 10 is complete control
[2] = Postemergence, Rate 125 g/ha, scale of 0 to 10 where 0 is no effect and 10 is complete control
[3] = Postemergence, Rate 250 g/ha, scale of 0 to 10, 0 is no effect, 10 is complete control
[4] = Preemergence, Rate 62 g/ha, scale of 0 to 10 where 0 is no effect and 10 is complete control
[5] = Preemergence, Rate 125 g/ha, scale of 0 to 10 where 0 is no effect and 10 is complete control
[6] = Preemergence, Rate 250 g/ha, scale 0 to 10 (0 no effect, 10 complete control)
[7] = Preemergence, Rate 500 g/ha, scale of 0 to 10 where 0 is no effect and 10 is complete control
[8] = Rate 500 g/ha, Postemergence, scale 0 to 10, 0 is no effect, 10 is complete control

SMILES: CC(C)N(C(=O)n1oc(=O)n(CCF)c1=O)c1ccc(F)cc1F [Compound 670]
- Plant response rating, Morningglory (morningglory; [1]): 3
- Morningglory plant response rating (morningglory; [2]): 3
- Morningglory plant response rating (morningglory; [3]): 6
- Morningglory plant response rating (morningglory; [4]): 2
- Plant response rating, Morningglory (morningglory; [5]): 7
- Plant response rating, Morningglory (morningglory; [6]): 8
- Plant response rating, Morningglory (morningglory; [7]): 8
- Morningglory plant response rating (morningglory; [8]): 4
- Plant response rating, Corn (corn; [1]): 3
- Corn plant response rating (corn; [2]): 4
- Corn plant response rating (corn; [3]): 5
- Corn plant response rating (corn; [4]): 2
- Plant response rating, Corn (corn; [5]): 4
- Plant response rating, Corn (corn; [6]): 8
- Plant response rating, Corn (corn; [7]): 9
- Corn plant response rating (corn; [8]): 6
- Plant response rating, Giant foxtail (giant foxtail; [1]): 9
- Giant foxtail plant response rating (giant foxtail; [2]): 9
- Giant foxtail plant response rating (giant foxtail; [3]): 9
- Giant foxtail plant response rating (giant foxtail; [4]): 10
- Plant response rating, Giant foxtail (giant foxtail; [5]): 10
- Plant response rating, Giant foxtail (giant foxtail; [6]): 10
- Plant response rating, Giant foxtail (giant foxtail; [7]): 10
- Giant foxtail plant response rating (giant foxtail; [8]): 9
- Plant response rating, Soybean (soybean; [1]): 3
- Soybean plant response rating (soybean; [2]): 2
- Soybean plant response rating (soybean; [4]): 0
- Plant response rating, Soybean (soybean; [5]): 3
- Plant response rating, Soybean (soybean; [6]): 8
- Plant response rating, Soybean (soybean; [7]): 9
- Soybean plant response rating (soybean; [8]): 5
- Plant response rating, Sugarbeets (sugar beet; [1]): 0
- Sugarbeets plant response rating (sugar beet; [2]): 2
- Sugarbeets plant response rating (sugar beet; [4]): 8
- Plant response rating, Sugarbeets (sugar beet; [5]): 9
- Plant response rating, Sugarbeets (sugar beet; [6]): 9
- Plant response rating, Sugarbeets (sugar beet; [7]): 9
- Sugarbeets plant response rating (sugar beet; [8]): 2
- Plant response rating, Velvetleaf (velvetleaf; [1]): 5
- Velvetleaf plant response rating (velvetleaf; [2]): 5
- Velvetleaf plant response rating (velvetleaf; [4]): 6
- Plant response rating, Velvetleaf (velvetleaf; [5]): 8
- Plant response rating, Velvetleaf (velvetleaf; [6]): 8
- Plant response rating, Velvetleaf (velvetleaf; [7]): 8
- Velvetleaf plant response rating (velvetleaf; [8]): 4
- Plant response rating, Blackgrass (blackgrass; [1]): 2
- Blackgrass plant response rating (blackgrass; [2]): 4
- Blackgrass plant response rating (blackgrass; [3]): 5
- Blackgrass plant response rating (blackgrass; [4]): 8
- Plant response rating, Blackgrass (blackgrass; [5]): 9
- Plant response rating, Blackgrass (blackgrass; [6]): 10
- Plant response rating, Blackgrass (blackgrass; [7]): 10
- Blackgrass plant response rating (blackgrass; [8]): 5
- Plant response rating, Crabgrass (crabgrass; [1]): 9
- Crabgrass plant response rating (crabgrass; [2]): 8
- Crabgrass plant response rating (crabgrass; [3]): 8
- Crabgrass plant response rating (crabgrass; [4]): 10
- Plant response rating, Crabgrass (crabgrass; [5]): 10
- Plant response rating, Crabgrass (crabgrass; [6]): 10
- Plant response rating, Crabgrass (crabgrass; [7]): 10
- Crabgrass plant response rating (crabgrass; [8]): 8
- Plant response rating, Redroot pigweed (pigweed; [1]): 7
- Redroot pigweed plant response rating (pigweed; [2]): 7
- Redroot pigweed plant response rating (pigweed; [4]): 9
- Plant response rating, Redroot pigweed (pigweed; [5]): 10
- Plant response rating, Redroot pigweed (pigweed; [6]): 10
- Plant response rating, Redroot pigweed (pigweed; [7]): 10
- Redroot pigweed plant response rating (pigweed; [8]): 9
- Plant response rating, Rape (rape; [1]): 0
- Rape plant response rating (rape; [2]): 2
- Rape plant response rating (rape; [4]): 8
- Plant response rating, Rape (rape; [5]): 9
- Plant response rating, Rape (rape; [6]): 10
- Plant response rating, Rape (rape; [7]): 10
- Rape plant response rating (rape; [8]): 4
- Bedstraw plant response rating (bedstraw; [4]): 8
- Plant response rating, Bedstraw (bedstraw; [5]): 8
- Plant response rating, Bedstraw (bedstraw; [6]): 9
- Plant response rating, Bedstraw (bedstraw; [7]): 9
- Bedstraw plant response rating (bedstraw; [8]): 8
- Plant response rating, Wheat (wheat; [1]): 0
- Wheat plant response rating (wheat; [2]): 0
- Wheat plant response rating (wheat; [4]): 7
- Plant response rating, Wheat (wheat; [5]): 9
- Plant response rating, Wheat (wheat; [6]): 9
- Plant response rating, Wheat (wheat; [7]): 9
- Wheat plant response rating (wheat; [8]): 4
- Plant response rating, B. signalgrass (surinam grass; [1]): 3
- Plant response rating, B. signalgrass (surinam grass; [2]): 7
- B. signalgrass plant response rating (surinam grass; [3]): 7
- B. signalgrass plant response rating (surinam grass; [4]): 8
- Plant response rating, B. signalgrass (surinam grass; [5]): 9
- Plant response rating, B. signalgrass (surinam grass; [6]): 10
- Plant response rating, B. signalgrass (surinam grass; [7]): 10
- B. signalgrass plant response rating (surinam grass; [8]): 8
- Plant response rating, Nutsedge (purple nutsedge; [1]): 0
- Nutsedge plant response rating (purple nutsedge; [2]): 4
- Plant response rating, Nutsedge (purple nutsedge; [5]): 5
- Plant response rating, Nutsedge (purple nutsedge; [6]): 8
- Plant response rating, Nutsedge (purple nutsedge; [7]): 10
- Nutsedge plant response rating (purple nutsedge; [8]): 5
- Plant response rating, Wild oats (wild oat; [1]): 0
- Wild oats plant response rating (wild oat; [2]): 0
- Wild oats plant response rating (wild oat; [4]): 7
- Plant response rating, Wild oats (wild oat; [5]): 9
- Plant response rating, Wild oats (wild oat; [6]): 9
- Plant response rating, Wild oats (wild oat; [7]): 9
- Wild oats plant response rating (wild oat; [8]): 3
- Plant response rating, Cocklebur (cocklebur; [1]): 2
- Cocklebur plant response rating (cocklebur; [2]): 2
- Cocklebur plant response rating (cocklebur; [3]): 2
- Cocklebur plant response rating (cocklebur; [4]): 0
- Plant response rating, Cocklebur (cocklebur; [5]): 0
- Plant response rating, Cocklebur (cocklebur; [7]): 2
- Cocklebur plant response rating (cocklebur; [8]): 3

SMILES: CC(C)N(C(=O)n1oc(=O)n(CCC(=O)N(C)C)c1=O)c1ccc(F)cc1F [Compound 687]
- Morningglory plant response rating (morningglory; [4]): 2
- Plant response rating, Morningglory (morningglory; [5]): 3
- Corn plant response rating (corn; [4]): 0
- Plant response rating, Corn (corn; [5]): 0
- Plant response rating, Corn (corn; [6]): 0
- Giant foxtail plant response rating (giant foxtail; [4]): 6
- Plant response rating, Giant foxtail (giant foxtail; [5]): 6
- Soybean plant response rating (soybean; [4]): 0
- Plant response rating, Soybean (soybean; [5]): 0
- Sugarbeets plant response rating (sugar beet; [4]): 4
- Plant response rating, Sugarbeets (sugar beet; [5]): 5
- Velvetleaf plant response rating (velvetleaf; [4]): 2
- Plant response rating, Velvetleaf (velvetleaf; [5]): 5
- Blackgrass plant response rating (blackgrass; [4]): 8
- Plant response rating, Blackgrass (blackgrass; [5]): 9
- Plant response rating, Blackgrass (blackgrass; [6]): 9
- Plant response rating, Blackgrass (blackgrass; [7]): 10
- Crabgrass plant response rating (crabgrass; [4]): 4
- Plant response rating, Crabgrass (crabgrass; [6]): 4
- Redroot pigweed plant response rating (pigweed; [4]): 8
- Plant response rating, Redroot pigweed (pigweed; [5]): 9
- Rape plant response rating (rape; [4]): 0
- Plant response rating, Rape (rape; [5]): 5
- Bedstraw plant response rating (bedstraw; [4]): 0
- Plant response rating, Bedstraw (bedstraw; [5]): 0
- Plant response rating, Bedstraw (bedstraw; [7]): 0
- Wheat plant response rating (wheat; [4]): 0
- Plant response rating, Wheat (wheat; [5]): 6
- B. signalgrass plant response rating (surinam grass; [4]): 6
- Plant response rating, B. signalgrass (surinam grass; [5]): 9
- Plant response rating, B. signalgrass (surinam grass; [6]): 10
- Plant response rating, B. signalgrass (surinam grass; [7]): 10
- Plant response rating, Nutsedge (purple nutsedge; [5]): 0
- Wild oats plant response rating (wild oat; [4]): 7
- Plant response rating, Wild oats (wild oat; [5]): 9
- Cocklebur plant response rating (cocklebur; [4]): 0
- Plant response rating, Cocklebur (cocklebur; [5]): 0
- Plant response rating, Cocklebur (cocklebur; [6]): 0
- Plant response rating, Cocklebur (cocklebur; [7]): 0
